“Also recorded” adds a separate entry of the source.
Columns and labels:
[1] = tested on: A549 human pulmonary cancer cells; assay: MTT test, proliferation of A549; format: cell-based
[2] = tested on: human mammary tumoral lineage T-47D; assay: Clonogenic test (soft agar), growth of cellular colonies; format: cell-based; conditions: T-47D
Summary of the method: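 Colony counts (clones over 100 μm², MTT-stained for at least 3 h) are expressed as a percentage of the untreated control. T-47D cells grew anchorage-independently between a 0.5% agar base and a 0.3% agar top layer. Cultures were incubated for 21 days after treatment at 37 °C with 5% CO2.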

Gal4-RARβ = assay: Transactivation, chimerical receptor Gal4-RARβ (transitory transfection of HeLa); format: cell-based; conditions: 10^-6 M; 100% = TTNPB 10^-8 M
RARα-ERcassette = assay: Transactivation, chimerical receptor RARα-ERcassette (HeLa); format: cell-based; conditions: TTNPB 10^-8 M = 100
Summary of the method: (§1)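 First, HeLa cells receive the chimeric RAR construct, whose native DNA-binding domain is exchanged for the oestrogen receptor's, plus an ERE-luciferase reporter and β-galactosidase control, by calcium phosphate co-precipitation. After 24 h, cells are incubated with effectors for 16 h before luciferase measurement.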

RARβ-ERcassette = assay: Transactivation, chimerical receptor RARβ-ERcassette (HeLa); format: cell-based; conditions: TTNPB 10^-8 M = 100
Summary of the method: as §1

RARγ-ERcassette = assay: Transactivation, chimerical receptor RARγ-ERcassette (HeLa); format: cell-based; conditions: TTNPB 10^-8 M = 100
Summary of the method: as §1

[3] = tested on: AP-1, MTLN lineage (MCF-7); assay: Anti-AP-1 effect, MTLN lineage activated by TPA; format: cell-based, human
Summary of the method: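 Percent inhibition of AP-1-driven luciferase after basal activity deduction, expressed as a range across repeat experiments. Cells: MTLN, an MCF-7 line stably transfected with p(TRE)3-tk-Luc and stimulated with 10^-7 M TPA; tests in duplicate.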

[4] = tested on: RAR-ERcassettes (RARα, RARβ, RARγ); assay: Chimerical receptors RAR-ERcassettes, overall profile; format: cell-based
Summary of the method: as §1

In the case of `C/C(=C/c1ccc2c(c1)C(C)(C)CCC2(C)C)c1ccc(-c2nnn[nH]2)cc1` [CB92834], the activity at 100 µM ([1]; Homo sapiens, A549, 10^-4 M, 72 h, control = 100%, read-out: level of proliferation) is reported as 14.4%, the activity at 1 µM ([1]; Homo sapiens, A549, 10^-6 M, 72 h, control = 100%, read-out: level of proliferation) is reported as 109% and the activity at 0.01 µM ([1]; Homo sapiens, A549, 10^-8 M, 72 h, control = 100%, read-out: level of proliferation) is reported as 105%. For the same compound, the “effect on cellular increase, A549 (in words)” value ([1]; MTT test) was “show activity on the increase of these two lineages”, the activity at 0.01 µM ([2]; Homo sapiens, T47D, 504 h, 10^-8 M, 21 days, control = 100%, read-out: mean number of cellular colonies in relation to control) was 38 ± 2% and the activity at 0.001 µM ([2]; Homo sapiens, T47D, 504 h, 10^-9 M, 21 days, control = 100%, read-out: mean number of cellular colonies in relation to control) was 58.9 ± 3.7%. The activity at 0.0001 µM ([2]; Homo sapiens, T47D, 504 h, 10^-10 M, 21 days, control = 100%, read-out: mean number of cellular colonies in relation to control) was 82.5 ± 12%, the “effect on growth of cellular colonies (in words)” value ([2]; soft agar) was “global inhibiting and dose dependent activity as great as that obtained with the best products in the trans series (E)” and the “GAL4-RAR RARβ transactivation” value (Gal4-RARβ) was 0%. The “RAR-ERcassette RARα transactivation” value (RARα-ERcassette; 10^-6 M) was 11%, the “RAR-ERcassette RARα transactivation” value (RARα-ERcassette; 10^-7 M) was 9% and the “RAR-ERcassette RARα transactivation” value (RARα-ERcassette; 10^-8 M) was 0%. For the same compound, the “RAR-ERcassette RARβ transactivation” value (RARβ-ERcassette; 10^-6 M) was 43%, the “RAR-ERcassette RARβ transactivation” value (RARβ-ERcassette; 10^-7 M) was 36% and the “RAR-ERcassette RARβ transactivation” value (RARβ-ERcassette; 10^-8 M) was 0%. For the same compound, the “RAR-ERcassette RARγ transactivation” value (RARγ-ERcassette; 10^-6 M) was 0%, the “RAR-ERcassette RARγ transactivation” value (RARγ-ERcassette; 10^-7 M) was 7% and the “RAR-ERcassette RARγ transactivation” value (RARγ-ERcassette; 10^-8 M) was 2%. The inhibition at 1 µM ([3]; Homo sapiens, MCF7, 10^-6 M, cells activated by 10^-7 M TPA, range of several experiments) was 20 to 23%, the inhibition at 0.1 µM ([3]; Homo sapiens, MCF7, 10^-7 M, cells activated by 10^-7 M TPA, range of several experiments, read-out: anti-AP-1 effect, inhibition) was 4 to 9% and the “anti-AP-1 effect (in words)” value ([3]; TPA-activated MTLN cells) was “anti-AP-1 molecules through RXR”. The “RAR-ERcassette profile (in words)” value [4] was “do not permit transactivation mediated by RARα-ERcassette and RARγ-cassette. However, a partial transactivation of RARβ-ERcassette is observed; also recorded: with a specific RAR agonist permits an over-activation of the effect of the RAR molecule alone for the three RAR-ERcassette receptors”.

Reference: patent publication US6265423A, “Aromatic polycyclic retinoid-type derivatives, method for preparing same, and use thereof for making pharmaceutical and cosmetic compositions” (priority 1996, dated 2001)
